Laboratory results taken from ChEMBL document CHEMBL2202971, “Synthesis and anti-hyperglycemic activity of hesperidin derivatives” (2012).
Activity calls are given as the source filed them. The rule behind the calls is not given here.

Key:
[1] = Inhibition of alpha glucosidase at 1 mM using pNPG substrate incubated for 60 mins
Mus musculus [2] = test: Antihyperglycemic activity in streptozotocin-induced diabetic Kunming mouse model assessed as blood glucose level at 100 mg/kg/day, po for 10 days measured on day 7 post dose (reference value: 23.6 +/- 4.25 mM); assay type: functional
Mus musculus [3] = test: Antihyperglycemic activity in streptozotocin-induced diabetic Kunming mouse model assessed as blood glucose level at 100 mg/kg/day, po for 10 days measured on day 3 post dose (reference value: 23.97 +/- 3.79 mM); assay type: functional
Mus musculus [4] = test: Antihyperglycemic activity in streptozotocin-induced diabetic Kunming mouse model assessed as blood glucose level at 100 mg/kg/day, po for 10 days measured on day 10 post dose (reference value: 23.03 +/- 3.94 mM); assay type: functional
Mus musculus [5] = test: Antihyperglycemic activity in streptozotocin-induced diabetic Kunming mouse model assessed as blood glucose level at 100 mg/kg/day, po for 10 days measured on day 1 post dose (reference value: 19.93 +/- 6.36 mM); assay type: functional
HepG2 = test: Induction of glucose consumption in human HepG2 cells at 0.1 mM assessed as glucose concentration incubated for 36 hrs; assay type: functional
Mus musculus [6] = test: Antihyperglycemic activity in streptozotocin-induced diabetic Kunming mouse model assessed as blood glucose level at 50 mg/kg/day, po for 10 days measured on day 7 post dose (reference value: 23.6 +/- 4.25 mM); assay type: functional
Mus musculus [7] = test: Antihyperglycemic activity in streptozotocin-induced diabetic Kunming mouse model assessed as blood glucose level at 50 mg/kg/day, po for 10 days measured on day 3 post dose (reference value: 23.97 +/- 3.79 mM); assay type: functional
Mus musculus [8] = test: Antihyperglycemic activity in streptozotocin-induced diabetic Kunming mouse model assessed as blood glucose level at 50 mg/kg/day, po for 10 days measured on day 1 post dose (reference value: 19.93 +/- 6.36 mM); assay type: functional
Mus musculus [9] = test: Antihyperglycemic activity in streptozotocin-induced diabetic Kunming mouse model assessed as blood glucose level at 50 mg/kg/day, po for 10 days measured on day 10 post dose (reference value: 23.03 +/- 3.94 mM); assay type: functional

In the case of `COc1ccc(C2CC(=O)c3c(O)cc(OC(C)=O)cc3O2)cc1O` (stereo not given), the inhibition [1] was “Active”.
With `CCC(=O)Oc1cc(O)c2c(c1)OC(c1ccc(OC)c(OC)c1)CC2=O` (stereo not given) the inhibition [1] was “Active”.
In the case of `CN(C)C(=N)NC(=N)N` [METFORMIN], the Activity (Mus musculus [2]) was 14.47 mM, the Activity (Mus musculus [3]) was 20.72 mM and the Activity (Mus musculus [4]) was 10 mM. The Activity (Mus musculus [5]) was 16.98 mM and the Activity (HepG2) was 2.11 mM.
With `CCC(=O)Oc1cc(O)c2c(c1)OC(c1ccc(OC)c(O)c1)CC2=O` (stereo not given) the inhibition [1] was “Active”.
`C[C@H]1O[C@H](O[C@H]2[C@H](O)[C@@H](O)[C@@H](O[C@H]3[C@H](O)[C@@H](O)C(O)O[C@@H]3CO)O[C@@H]2CO)[C@H](O)[C@@H](O)[C@@H]1N[C@H]1C=C(CO)[C@@H](O)[C@H](O)[C@H]1O` (stereo not given in full) gave an inhibition [1] of 54.8%.
In the case of `COc1ccc(C2CC(=O)c3c(O)cc(OCc4ccccc4)cc3O2)cc1OC` (stereo not given), the inhibition [1] was 53.3%.
With `CCCCOc1cc(O)c2c(c1)OC(c1ccc(OC)c(OC)c1)CC2=O` (stereo not given) the inhibition [1] was “Active”.
For `COc1ccc(C2CC(=O)c3c(O)cc(OCCCCBr)cc3O2)cc1OC` (stereo not given), the inhibition [1] was “Active”.
In the case of `COc1ccc(C2CC(=O)c3c(O)cc(O)cc3O2)cc1OC` (stereo not given), the inhibition [1] was “Active”.
For `COc1ccc(C2CC(=O)c3c(O)cc(OC(=O)c4ccccc4)cc3O2)cc1O` (stereo not given), the inhibition [1] was “Active”.
With `COc1ccc(C2CC(=O)c3c(O)cc(OCc4ccccc4)cc3O2)cc1O` (stereo not given) the Activity (Mus musculus [2]) was 19.18 mM, the Activity (Mus musculus [3]) was 20.12 mM and the Activity (Mus musculus [4]) was 13.23 mM. It also gave an Activity (Mus musculus [5]) of 16.78 mM, an Activity (HepG2) of 1.78 mM and an Activity (Mus musculus [6]) of 19.35 mM. The inhibition [1] was 55%, the Activity (Mus musculus [7]) was 21.25 mM and the Activity (Mus musculus [8]) was 17.5 mM. For the same molecule, the Activity (Mus musculus [9]) was 20.1 mM.
For `COc1ccc(C2CC(=O)c3c(O)cc(O)cc3O2)cc1O` (stereo not given), the inhibition [1] was “Active”.
